Laboratory results reported in US9457040B2, “Effective treatment of esophageal adenocarcinoma using triciribine and related compounds” (University of South Florida, priority 2007, dated 2016).

Columns and labels:
PKCα = PKCα (Homo sapiens, UniProt P17252); assay: PKCα kinase activity / phospho-PKCα-T638 immunoblot; assay type: cell-based; settings: anti-phospho-PKCα-T638 immunoblot
[1] = cited from earlier work
[2] = system: advanced refractory malignancies; settings: patients; i.v. infusion over fifteen minutes once every three weeks, 25 to 350 mg/m^2; cited from earlier work
advanced solid cancers = settings: patients; i.v. days 1, 8, 15 and 22 of a 42 day cycle, 12 to 96 mg/m^2; cited from earlier work
[3] = system: metastatic colorectal adenocarcinoma; settings: patients; i.v. over 15 minutes 165 or 250 mg/m^2 once a week in three week intervals; cited from earlier work
[4] = system: advanced squamous cell carcinoma of the cervix; settings: cited from earlier work

In the case of `Cn1cc(C2=C(c3cn(CCCSC(=N)N)c4ccccc34)C(=O)NC2=O)c2ccccc21` [Ro 31-8220], the “kinase activity of PKCα” value (PKCα) is reported as “inhibited”.

For `CN1N=C(N)c2cn([C@@H]3O[C@H](COP(=O)(O)O)[C@@H](O)[C@H]3O)c3ncnc1c23` [TCN-P, triciribine phosphate], the “solubility relative to the parent drug” value [1] is listed as “more soluble than the parent drug”, the therapeutic response [2] is listed as “limited therapeutic responses” and the toxicity [2] is listed as “significant toxicity”. For the same molecule, the toxicity (advanced solid cancers) was “unexpected clinical toxicity”, the clinical usefulness [3] was “lack of clinical usefulness” and the “responses among twenty-one evaluable patients” value ([4]; 5 day continuous infusion of at least 35 mg/m^2 every six weeks) was “only two responses were observed”. The “activity (authors' conclusion)” value ([4]; metastatic or recurrent squamous cell cancer of the cervix, this dose and schedule) was “limited activity”.
